In patent US6723747B2, “Substituted 6H-DiBenzo[c,h]chromenes as estrogenic agents” (Wyeth, priority 2001, dated 2004):

Key:
[1] = molecular target: T1, human ERβ (Homo sapiens, UniProt Q92731); experiment: Radioligand binding competition with [3H]-17β-estradiol, ERβ; conditions: human ERβ ligand binding domain, read-out: ER-β IC50
T1 construct: M214-Q530 of human ERβ; Flag (C); made in house; host or cells: E. coli BL21(DE3), clarified lysate

[2] = molecular target: T2, human ERα (Homo sapiens, UniProt P03372); experiment: Radioligand binding competition with [3H]-17β-estradiol, ERα; conditions: human ERα ligand binding domain, read-out: ER-α IC50
T2 construct: amino acids M250-V595 of human ERα; His (N); made in house; host or cells: E. coli BL21(DE3), clarified lysate
T2 sequence (P03372 250-595): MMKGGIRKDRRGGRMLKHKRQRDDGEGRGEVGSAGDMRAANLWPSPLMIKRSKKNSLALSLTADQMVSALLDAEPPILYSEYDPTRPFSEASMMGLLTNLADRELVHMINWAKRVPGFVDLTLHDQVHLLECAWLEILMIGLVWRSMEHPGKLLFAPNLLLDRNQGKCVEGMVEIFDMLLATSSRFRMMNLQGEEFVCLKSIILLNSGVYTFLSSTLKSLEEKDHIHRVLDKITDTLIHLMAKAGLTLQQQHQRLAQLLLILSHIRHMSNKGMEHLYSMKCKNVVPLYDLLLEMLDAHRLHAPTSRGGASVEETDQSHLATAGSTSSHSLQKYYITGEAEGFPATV

[3] = tested on: 129 SvE mice; experiment: Mouse uterotrophic test procedure (Procedure 2); format: in vivo; conditions: 50 mg/kg subcutaneously, 4 days, immature mice
Procedure: Procedure 2: Sexually immature (18 days of age) 129 SvE mice were obtained from Taconic and provided unrestricted access to a casein-based diet (Purina Mills 5K96C) and water. On day 22, 23, 24 and 25 the mice were dosed subcutaneously with compound or vehicle (corn oil). There were six mice/group and they were euthanized approximately 6 hours after the last injection by CO2 asphyxiation and pneumothorax. Uteri were removed and weighed after trimming associated fat and expressing any internal fluid. The following results (Table (2)) were obtained for representative compounds from the invention.

[4] = tested on: progesterone receptor mRNA in the preoptic area of the rat brain; experiment: Progesterone receptor mRNA regulation test procedure; format: in vivo; conditions: 10 mg/kg, vehicle 4.3 ± 1.5
Description: This test procedure can be used to evaluate the estrogenic or antiestrogenic activity of compounds from this invention [Shughrue, et al., Endocrinology 138: 5476-5484 (1997)].

[5] = tested on: casein kinase II mRNA; experiment: Mammary end bud test procedure (rat mammotrophic assay); format: in vivo; conditions: 0.1 mg/kg sc + progesterone 30 mg/kg; ovariectomized rats; vehicle 1.61 ± 0.36
Procedure: Estrogens are required for full ductal elongation and branching of the mammary ducts, and the subsequent development of lobulo-alveolar end buds under the influence of progesterone. In this test procedure, the mammotrophic activity of selected compounds of the invention was evaluated according to the following standard pharmacological test procedure. Twenty-eight day old Sprague-Dawley rats (Taconic Farms, Germantown, N.Y.) were ovariectomized and rested for nine days. […] For the final three days, rats were also dosed subcutaneously with progesterone (30 mg/kg). On the seventh day, rats were euthanised and a mammary fat pad excised. This fat pad was analyzed for casein kinase II mRNA as a marker of end bud proliferation. Casein kinase II mRNA was anlayzed by real-time RT-PCR. Briefly, RNA was isolated following Trizol (GibcoBRL, Grand Island, N.Y.) according to the manufacture's directions, Samples were treated with DNAse I using DNA-free kit (Ambion), and casein kinase II mRNA levels were measured by real-time RT-PCR using the Taqman Gold procedure (PE Applied Biosystems). […] Casein kinase II mRNA levels were normalized to 18s ribosomal RNA contained within each sample reaction using primers and probe supplied by PE Applied Biosystems. The following results were obtained for an example of the invention (Table (4)).

[6] = second experiment, vehicle 10.3 ± 0.8

T1 sequence (Q92731 214-530): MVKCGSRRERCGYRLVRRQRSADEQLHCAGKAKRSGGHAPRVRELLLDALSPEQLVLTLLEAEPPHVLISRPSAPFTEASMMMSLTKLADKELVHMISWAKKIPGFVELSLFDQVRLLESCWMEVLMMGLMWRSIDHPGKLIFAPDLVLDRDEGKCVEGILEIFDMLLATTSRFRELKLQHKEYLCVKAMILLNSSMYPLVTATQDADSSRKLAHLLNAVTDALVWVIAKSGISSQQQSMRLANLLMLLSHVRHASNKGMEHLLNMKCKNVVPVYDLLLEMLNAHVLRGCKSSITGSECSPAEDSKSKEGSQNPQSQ

| Compound | IC50 [1] | IC50 [2] | melting point | mean uterine weight ± SEM [3, 6] | Progesterone receptor mRNA (mean ± stdev) [4] | mean uterine weight ± SEM ([3]; first experiment, vehicle 9.5 ± 0.3) | Casein kinase II mRNA/18S rRNA (mean ± SEM) [5] |
| --- | --- | --- | --- | --- | --- | --- | --- |
| COc1cc2c(c3ccc(O)cc13)OCc1cc(O)ccc1-2 [Example 1l, 12-Methoxy-6H-dibenzo[c,h]chromene-2,8-diol] | 16 nM | 147 nM | 224 °C (dec.) | – | – | – | – |
| Oc1ccc2c3c(ccc2c1)-c1cc(F)c(O)cc1CO3 [Example 1b, 9-Fluoro-6H-dibenzo[c,h]chromene-2,8-diol] | 1.8 nM | 20 nM | 230 to 231 °C (dec.) | – | – | – | – |
| Oc1ccc2c(c1)COc1c-2cc(-c2cccs2)c2cc(O)ccc12 [Example 1r, 12-Thien-2-yl-6H-dibenzo[c,h]chromene-2,8-diol] | 48.3 nM | 217 nM | 191 to 193 °C | – | – | – | – |
| C[C@]12CC[C@@H]3c4ccc(O)cc4CC[C@H]3[C@@H]1CC[C@@H]2O [17β-estradiol, reference compound] | – | – | – | 45.3 ± 1.9 mg | – | 46.7 ± 2.5 mg | 39.0 ± 5.4 |
| CCc1cc2c(c3ccc(O)cc13)OCc1cc(O)ccc1-2 [Example 1p, 12-Ethyl-6H-dibenzo[c,h]chromene-2,8-diol] | 2.9 nM | 44 nM | 184 to 192 °C | – | – | – | – |
| Oc1ccc2c(c1)COc1c-2ccc2c(Cl)c(O)ccc12 [Example 1g, 1-Chloro-6H-dibenzo[c,h]chromene-2,8-diol] | 2.7 nM | 74 nM | 216 to 218 °C | – | – | – | – |
| CCCc1cc2c(c3ccc(O)cc13)OCc1cc(O)ccc1-2 [Example 1t, 12-Propyl-6H-dibenzo[c,h]chromene-2,8-diol] | 11 nM | 160 nM | 86 to 95 °C | – | – | – | – |
| N#Cc1cc2c(c3ccc(O)c(Cl)c13)OCc1cc(O)ccc1-2 [Example 1f, 1-Chloro-2,8-dihydroxy-6H-dibenzo[c,h]chromene-12-carbonitrile] | 3.5 nM | 156 nM | > 250 °C | – | – | – | – |
| Oc1ccc2c3c(cc(Cl)c2c1)-c1cc(F)c(O)cc1CO3 [Example 1k, 12-Chloro-9-fluoro-6H-dibenzo[c,h]chromene-2,8-diol] | 2 nM | 27 nM | 215 to 220 °C (dec.) | – | – | – | – |
| Oc1ccc2c(c1)COc1c-2ccc2cc(O)ccc12 [Example 1a, 6H-Dibenzo[c,h]chromene-2,8-diol] | 3.3 nM | 74 nM | 248 to 252 °C (dec.) | – | – | – | – |
| CCCCc1cc2c(c3ccc(O)cc13)OCc1cc(O)ccc1-2 [Example 1s, 12-Butyl-6H-dibenzo[c,h]chromene-2,8-diol] | 3 nM | 71 nM | 118 to 121 °C | – | – | – | – |
| Cc1cc2c(c3ccc(O)cc13)OCc1cc(O)ccc1-2 [Example 1n, 12-Methyl-6H-dibenzo[c,h]chromene-2,8-diol] | 2.7 nM | 102 nM | 220 to 224 °C (dec.) | – | – | – | – |
| C=Cc1cc2c(c3ccc(O)cc13)OCc1cc(O)ccc1-2 [Example 1o, 12-Vinyl-6H-dibenzo[c,h]chromene-2,8-diol] | 2.3 nM | 81 nM | > 220 °C | – | – | – | – |
| Oc1ccc2c(c1)COc1c-2cc(-c2ccsc2)c2cc(O)ccc12 [Example 1q, 12-Thien-3-yl—6H-dibenzo[c,h]chromene-2,8-diol] | 29.2 nM | 154 nM | 179 to 182 °C | – | – | – | – |
| N#Cc1cc2c(c3ccc(O)cc13)OCc1cc(O)c(F)cc1-2 [Example 1e, 9-fluoro-2,8-dihydroxy-6H-dibenzo[c,h]chromene-12-carbonitrile] | 19 nM | 1230 nM | > 250 °C | – | – | – | – |
| Oc1ccc2c(c1)COc1c-2ccc2ccccc12 [Example 1c, 6H-Dibenzo[c,h]chromen-8-ol] | 79.7 nM | 460 nM | 192 to 194 °C | – | – | – | – |
| Oc1ccc2c3c(cc(Br)c2c1)-c1cc(F)c(O)cc1CO3 [Example 1j, 12-Bromo-9-fluoro-6H-dibenzo[c,h]chromene-2,8-diol] | 2 nM | 77 nM | 194 to 197 °C | – | – | – | – |
| Oc1ccc2c(c1)COc1c-2ccc2c(O)c(Cl)ccc12 [Example 1y, 2-Chloro-6H-dibenzo[c,h]chromene-1,8-diol] | 1.65 nM | 17.6 nM | 181 to 182 °C (dec.) | – | – | – | – |

The next lines start with results.

| IC50 [1] | IC50 [2] | melting point | Compound | mean uterine weight ± SEM [3, 6] | Progesterone receptor mRNA (mean ± stdev) [4] | mean uterine weight ± SEM ([3]; first experiment, vehicle 9.5 ± 0.3) | Casein kinase II mRNA/18S rRNA (mean ± SEM) [5] |
| --- | --- | --- | --- | --- | --- | --- | --- |
| 0.8 nM | 10 nM | – | Oc1ccc2c(c1)COc1c-2ccc2c(O)ccc(Cl)c12 [Example 1z, 4-chloro-6H-dibenzo[c,h]chromene-1,8-diol] | – | – | – | – |
| 1.4 nM | 17 nM | 213 to 214 °C | Oc1ccc2c(c1)COc1c-2ccc2c(O)cccc12 [Example 1u, 6H-dibenzo[c,h]chromene-1,8-diol] | – | – | – | – |
| 1.1 nM | 17 nM | 212 to 216 °C (dec.) | Oc1ccc2c(c1)COc1c-2cc(Cl)c2cc(O)ccc12 [Example 1i, 12-Chloro-6H-dibenzo[c,h]chromene-2,8-diol] | 28.9 ± 2.0 mg | 57.5 ± 14.0 arbitrary units | – | – |
| 0.27 nM | 10.4 nM | – | COc1c(Cl)c2c(c3ccc(O)cc13)OCc1cc(O)ccc1-2 [Example 1m, 11-Chloro-12-methoxy-6H-dibenzo[c,h]chromene-2,8-diol] | – | – | – | – |
| 0.9 nM | 26 nM | 178 to 180 °C (dec.) | Oc1ccc2c(c1)COc1c-2cc(Br)c2cc(O)ccc12 [Example 1h, 12-Bromo-6H-dibenzo[c,h]chromene-2,8-diol] | – | – | – | – |
| 1.4 nM | 10 nM | – | Oc1ccc2c(c1)COc1c-2cc(Br)c2c(O)cccc12 [Example 1w, 12-Bromo-6H-dibenzo[c,h]chromene-1,8-diol] | – | – | – | – |
| 0.9 nM | 4.5 nM | – | Oc1ccc2c(c1)COc1c-2cc(Cl)c2c(O)cccc12 [Example 1v, 12-Chloro-6H-dibenzo[c,h]chromene-1,8-diol] | – | – | – | – |
| 1.5 nM | 86 nM | – | N#Cc1cc2c(c3cccc(O)c13)OCc1cc(O)ccc1-2 [Example 1x, 1,8-Di hydroxy-6H-di benzo[c,h]chromene-12-carbonitrile] | – | – | – | – |
